Laboratory results from US11452758B2, “Antimicrobial peptide derived from LL37 peptide and uses thereof” (INDUSTRY-ACADEMIC COOPERATION FOUNDATION, CHOSUN UNIVERSITY, priority 2018, dated 2022).
Converted amounts (≈) assume the structure as drawn. Where a SMILES comes first, the peptide text is derived from it.

Legend:
[1] = tested on: A. baumannii #10; type: cell-based, Acinetobacter baumannii; settings: #10
Text: (§1) To compare the antimicrobial activity among the peptides produced by the method of Example 1, the inventors of the present invention measured the minimal growth inhibitory concentration (MIC), which is minimum concentration of the peptide not allowing any […] of bacterial cells.
(§2) Specifically, the bacterial strains described in the following Table 2 were purchased and cultured to a mid-log phase in MHB (Mueller Hinton Broth) medium. Then, after dilution to bacterial cell concentration of 2×10^5 cells/50 μl, the cells were inoculated to a microtiter plate (NUNC, USA). Thereafter, LL37-1, LL37-2, LL37-3 or LL37-4 peptide which has been synthesized in Example 1 above was subjected to serial dilution, ½ times for each, in a 96-well plate. After adding the peptides in an amount of 50 μl to the cell plate, the cells were cultured for 18 hours at 37° C. By using a microtiter plate reader (Merck Elisa reader, Germany), the absorbance was measured at a wavelength of 600 nm to determine the MIC value of each bacterial strain. As a control group, LL37 as a mother peptide was used and subjected to the same process as above to determine the MIC value of each strain.

[2] = tested on: A. baumannii #11; type: cell-based, Acinetobacter baumannii; settings: #11
Text: as §1, §2

[3] = tested on: A. baumannii #12; type: cell-based, Acinetobacter baumannii; settings: #12
Text: as §1, §2

[4] = tested on: A. baumannii #13; type: cell-based, Acinetobacter baumannii; settings: #13
Text: as §1, §2

[5] = tested on: A. baumannii #19; type: cell-based, Acinetobacter baumannii; settings: #19
Text: as §1, §2

[6] = tested on: A. baumannii #2; type: cell-based, Acinetobacter baumannii; settings: #2
Text: as §1, §2

[7] = tested on: A. baumannii #3; type: cell-based, Acinetobacter baumannii; settings: #3
Text: as §1, §2

[8] = tested on: A. baumannii #4; type: cell-based, Acinetobacter baumannii; settings: #4
Text: as §1, §2

[9] = tested on: A. baumannii #5; type: cell-based, Acinetobacter baumannii; settings: #5
Text: as §1, §2

[10] = tested on: A. baumannii #8; type: cell-based, Acinetobacter baumannii; settings: #8
Text: as §1, §2

[11] = tested on: A. baumannii #9; type: cell-based, Acinetobacter baumannii; settings: #9
Text: as §1, §2

[12] = tested on: A. baumannii KCTC 2508; type: cell-based, Acinetobacter baumannii; settings: for Minimal inhibitory concentration of antimicrobial peptide: KCTC 2508; for Minimal inhibitory concentration: KCTC 2508, 18 h
Text: as §1, §2

[13] = tested on: E. coli ATCC 25922; type: cell-based, Escherichia coli; settings: ATCC 25922, 18 h
Text: as §1, §2

[14] = tested on: P. aeruginosa ATCC 27853; type: cell-based, Pseudomonas aeruginosa; settings: ATCC 27853, 18 h
Text: as §1, §2

[15] = Cytotoxicity in normal cell line (MTT); type: cell-based, human; settings: human
Procedure: To determine the cytotoxicity of the peptides produced by the method of Example 1 in normal cell line, cytotoxicity was measured by using normal human keratinocyte cell line (HaCaT) and normal human fibroblast cell line (Hs27).
Specifically, normal human keratinocyte (HaCaT) cells and normal human fibroblast (Hs27) cells, which have been cultured in DMEM medium containing 10% FBS (fetal bovine serum), were aliquoted in a microtiter plate to have 1×10^4 cells per well. After culturing them for 24 hours, the cells were subjected to a treatment with LL37, LL37-1, LL37-2, LL37-3 or LL37-4 peptide, each at concentration of 0.5, 1, 2, 4, 8, 16 or 32 μM/well, followed by reaction for 24 hours in a 5% CO2 incubator. After culture, a reaction solution containing 5 mg/ml MTT (Thiazolyl Blue Tetrazolium Bromide) dissolved in phosphate buffered saline (PBS) was added in an amount of 10 μl to each well and the reaction was allowed to occur for 1 hour. After that, the supernatant was discarded, and, by dissolving MTT crystals that are formed by adding 200 μl DMSO (dimethyl sulfoxide), the absorbance at 570 nm was measured to determine the cell survival ability.

[16] = tested on: Acinetobacter baumannii KCTC 2508; type: cell-based; settings: for antimicrobial activity after reaction with trypsin: peptide 100 μg/ml with 10.7 nM trypsin, 10 minutes at 37° C., A. baumannii KCTC 2508
Procedure: To determine the activity of the peptides, which have been prepared by the method of Example 1, in the presence of trypsin as one type of proteases, peptide stability against protease was determined by radial diffusion assay.
Specifically, among the bacterial strains that are described in the above Table 2, Acinetobacter baumannii KCTC 2508 cells were cultured to a mid-log phase in MHB medium, and, after diluting the cells to a cell concentration of 2×10^5 cells/10 ml, the cells were admixed with agarose which has been adjusted to final concentration of 1% and then evenly spread and solidified on a Petri dish. After that, the peptide adjusted to a concentration of 100 μg/ml was admixed with 10.7 nM trypsin and reacted for 10 minutes at 37° C. After applying a paper disk (diameter: 6 mm) on the solidified Petri dish, the peptide obtained after the reaction with trypsin was aliquoted thereto in an amount of 25 μl. After culture for 18 hours at 37° C., diameter of the clear zone around the paper disk was measured so that the level of antimicrobial activity for Acinetobacter baumannii KCTC 2508 was determined.

Structure (SMILES) | Minimal inhibitory concentration [1] [µM] | Minimal inhibitory concentration [2] [µM] | Minimal inhibitory concentration [3] [µM] | Minimal inhibitory concentration [4] [µM] | Minimal inhibitory concentration [5] [µM] | Minimal inhibitory concentration [6] [µM] | Minimal inhibitory concentration [7] [µM] | Minimal inhibitory concentration [8] [µM] | Minimal inhibitory concentration [9] [µM] | Minimal inhibitory concentration [10] [µM] | Minimal inhibitory concentration [11] [µM] | Minimal inhibitory concentration of antimicrobial peptide [12] [µM] | Minimal inhibitory concentration [12] [µM] | Minimal inhibitory concentration [13] [µM] | Minimal inhibitory concentration [14] [µM] | viability at 24 h, 0.5 µM ([15]; HaCaT keratinocyte cells) [%] | viability at 24 h, 1 µM ([15]; HaCaT keratinocyte cells) [%] | viability at 24 h, 2 µM ([15]; HaCaT keratinocyte cells) [%] | viability at 24 h, 4 µM ([15]; HaCaT keratinocyte cells) [%] | viability at 24 h, 8 µM ([15]; HaCaT keratinocyte cells) [%] | also measured
CC[C@H](C)[C@H](NC(=O)[C@H](CCCNC(=N)N)NC(=O)[C@H](CCC(N)=O)NC(=O)[C@@H](NC(=O)[C@@H](NC(=O)[C@H](CCCNC(=N)N)NC(=O)[C@H](CCCCN)NC(=O)[C@H](Cc1ccccc1)NC(=O)[C@H](CCCCN)NC(=O)[C@@H](N)CCCCN)[C@@H](C)CC)C(C)C)C(=O)N[C@@H](CCCCN)C(=O)N[C@@H](CCCCN)C(=O)N[C@@H](Cc1ccccc1)C(=O)N[C@@H](CC(C)C)C(=O)N[C@@H](CCCNC(=N)N)C(=O)N[C@@H](CC(N)=O)C(N)=O [LL37-4, KKFKRIVQRIKKFLRN-NH2] (H-KKFKRIVQRIKKFLRN-NH2; N-terminus assumed) | 2 (≈ 4.2 µg/mL) | 2 (≈ 4.2 µg/mL) | 2 (≈ 4.2 µg/mL) | 2 (≈ 4.2 µg/mL) | 4 (≈ 8.41 µg/mL) | 2 (≈ 4.2 µg/mL) | 2 (≈ 4.2 µg/mL) | 2 (≈ 4.2 µg/mL) | 2 (≈ 4.2 µg/mL) | 2 (≈ 4.2 µg/mL) | 2 (≈ 4.2 µg/mL) | 4 | 4 (≈ 8.41 µg/mL) | 16 (≈ 33.6 µg/mL) | 4 (≈ 8.41 µg/mL) | 100 | 103 | 97 | 96 | 92 | viability at 24 h, 16 µM ([15]; HaCaT keratinocyte cells): 94%; viability at 24 h, 32 µM ([15]; HaCaT keratinocyte cells): 101%; viability at 24 h, 0.5 µM ([15]; Hs27 fibroblast cells): 94%; viability at 24 h, 1 µM ([15]; Hs27 fibroblast cells): 94%; viability at 24 h, 2 µM ([15]; Hs27 fibroblast cells): 97%; viability at 24 h, 4 µM ([15]; Hs27 fibroblast cells): 90%; viability at 24 h, 8 µM ([15]; Hs27 fibroblast cells): 93%; viability at 24 h, 16 µM ([15]; Hs27 fibroblast cells): 96%; viability at 24 h, 32 µM ([15]; Hs27 fibroblast cells): 93%; decrease in clear zone compared to no treatment with trypsin ([16]; KCTC 2508, 18 h): 1.75 mm; antimicrobial activity after reaction with trypsin [16]: showed the antimicrobial activity
CC[C@H](C)[C@H](NC(=O)[C@H](CCCCN)NC(=O)[C@H](CCC(=O)O)NC(=O)[C@H](CCCCN)NC(=O)[C@H](CO)NC(=O)[C@H](CCCCN)NC(=O)[C@H](CCCNC(=N)N)NC(=O)[C@H](Cc1ccccc1)NC(=O)[C@H](Cc1ccccc1)NC(=O)[C@H](CC(=O)O)NC(=O)CNC(=O)[C@H](CC(C)C)NC(=O)[C@@H](N)CC(C)C)C(=O)NCC(=O)N[C@@H](CCCCN)C(=O)N[C@@H](CCC(=O)O)C(=O)N[C@@H](Cc1ccccc1)C(=O)N[C@@H](CCCCN)C(=O)N[C@@H](CCCNC(=N)N)C(=O)N[C@H](C(=O)N[C@H](C(=O)N[C@@H](CCC(N)=O)C(=O)N[C@@H](CCCNC(=N)N)C(=O)N[C@H](C(=O)N[C@@H](CCCCN)C(=O)N[C@@H](CC(=O)O)C(=O)N[C@@H](Cc1ccccc1)C(=O)N[C@@H](CC(C)C)C(=O)N[C@@H](CCCNC(=N)N)C(=O)N[C@@H](CC(N)=O)C(=O)N[C@@H](CC(C)C)C(=O)N[C@H](C(=O)N1CCC[C@H]1C(=O)N[C@@H](CCCNC(=N)N)C(=O)N[C@H](C(=O)N[C@@H](CCC(=O)O)C(=O)N[C@@H](CO)C(N)=O)[C@@H](C)O)C(C)C)[C@@H](C)CC)C(C)C)[C@@H](C)CC [LL37] | 2 (≈ 8.98 µg/mL) | 2 (≈ 8.98 µg/mL) | 2 (≈ 8.98 µg/mL) | 2 (≈ 8.98 µg/mL) | 2 (≈ 8.98 µg/mL) | 2 (≈ 8.98 µg/mL) | 2 (≈ 8.98 µg/mL) | 2 (≈ 8.98 µg/mL) | 2 (≈ 8.98 µg/mL) | 2 (≈ 8.98 µg/mL) | 2 (≈ 8.98 µg/mL) | 2 | 2 (≈ 8.98 µg/mL) | 32 (≈ 144 µg/mL) | 8 (≈ 35.9 µg/mL) | 99 | 99 | 96 | 98 | 99 | viability at 24 h, 16 µM ([15]; HaCaT keratinocyte cells): 83%; viability at 24 h, 32 µM ([15]; HaCaT keratinocyte cells): 17%; viability at 24 h, 0.5 µM ([15]; Hs27 fibroblast cells): 95%; viability at 24 h, 1 µM ([15]; Hs27 fibroblast cells): 90%; viability at 24 h, 2 µM ([15]; Hs27 fibroblast cells): 90%; viability at 24 h, 4 µM ([15]; Hs27 fibroblast cells): 89%; viability at 24 h, 8 µM ([15]; Hs27 fibroblast cells): 90%; viability at 24 h, 16 µM ([15]; Hs27 fibroblast cells): 82%; viability at 24 h, 32 µM ([15]; Hs27 fibroblast cells): 19%; antimicrobial activity after reaction with trypsin [16]: did not exhibit any antimicrobial activity
